From paper PMC10351538 (Journal of Enzyme Inhibition and Medicinal Chemistry, 2023)

Molecular target: triosephosphate isomerase (TcTIM WT) (Trypanosoma cruzi, UniProt P52270)
Assay: coupled enzyme assay
Assay type: biochemical
Details: read-out: approximately 95% inactivation

Sequence of triosephosphate isomerase (TcTIM WT) (P52270 whole entry): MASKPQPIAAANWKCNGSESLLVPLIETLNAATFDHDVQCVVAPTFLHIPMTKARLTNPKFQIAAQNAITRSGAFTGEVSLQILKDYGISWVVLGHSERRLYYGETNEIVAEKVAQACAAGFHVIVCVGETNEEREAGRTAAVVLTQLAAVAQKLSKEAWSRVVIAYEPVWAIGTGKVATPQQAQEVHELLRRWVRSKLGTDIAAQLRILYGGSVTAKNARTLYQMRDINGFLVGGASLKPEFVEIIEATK

IC95: ~75 µM
SMILES: COCCCOc1ccnc(C[S+]([O-])c2nc3ccccc3[nH]2)c1C (stereo not shown) [Rbz, rabeprazole]
